Read-outs that look alike come from different tables or passages of the source.
Legend:
[1] = target: T1, PRMT5-MEP50 enzyme complex (Homo sapiens, UniProt O14744); experiment: PRMT5-MEP50 Enzyme Methylation Assay (Version B); format: biochemical
T1 construct: Full-length (FL)-PRMT5-MEP50 enzyme complex (recombinant proteins from baculovirus-transfected Sf21 cells: FL-PRMT5; MW=73837 kDa and FL-MEP50; MW=38614); made in house; host or cells: baculovirus-transfected Sf21 cells
Experimental: PRMT5-MEP50 Enzyme Methylation Assay (Version B)
PRMT5-MEP50 biochemical assay is a direct measurement of the methylation activity of the enzyme complex on a short peptide substrate derived from the N-terminus of H4 histone. Methylation experiment was performed with recombinant PRMT5-MEP50 protein complex. The assessment of inhibitory effect (EC50) of small molecules was measured by the effectiveness of the compounds to inhibit this reaction.
In this assay, the potency (EC50) of each compound was determined from a twenty-point (1:2 serial dilution; top compound concentration of 100000 nM) titration curve using the following outlined procedure. To each well of a white ProxiPlus 384 well-plate, 100 nL of compound (1% DMSO in final assay volume of 10 μL) was dispensed, followed by the addition of 8 μL of 1× assay buffer (50 mM Bicine pH 8.0, 1 mM DTT, 0.004% Tween20, 0.01% BSA) containing 0.625 nM of Full-length (FL)-PRMT5-MEP50 enzyme complex (recombinant proteins from baculovirus-transfected Sf21 cells: FL-PRMT5; MW=[…] and FL-MEP50; MW=38614). Plates were sealed and placed in a 37° C. humidified chamber for 30 minutes pre-incubation with compounds. Subsequently, each reaction was initiated by the addition of 2 μL 1× assay buffer containing 375 nM biotinylated H4R3 (MeI) peptide, and 75 μM S-(5′-Adenosyl)-L-Methionine Chloride (SAM). The final reaction in each well of 10 μL consists of 0.5 nM PRMT5-MEP50, 75 nM biotinylated-peptide, and 15 μM SAM. Methylation reactions were allowed to proceed for 150 minutes in a sealed plate at 37° C. Reactions were immediately quenched by the addition of 1 μL of 10% formic acid. Plates were then frozen and shipped to SAMDI™ Tech Inc. to determine the percent conversion from […]. Dose-response curves were generated by plotting percent effect (% product conversion; Y-axis) vs. Log 10 compound concentrations (X-axis). EC50 values were determined by non-linear regression according to models for either sigmoidal (4 parameters) or biphasic (7 parameters) dose-response curves.

[2] = target: T2, PRMT5 (Homo sapiens, UniProt O14744); experiment: PRMT5 Cell Target Engagement (TE) Assay; format: cell-based; settings: MCF-7 cells, treated for 3 days, symmetric dimethylation of arginine (SDMA) by high content imaging
T2 construct: seeded with 4000 MCF-7 cells in 30 μl media; endogenous in cells; host or cells: MCF-7 cells
T2 sequence (O14744 whole entry): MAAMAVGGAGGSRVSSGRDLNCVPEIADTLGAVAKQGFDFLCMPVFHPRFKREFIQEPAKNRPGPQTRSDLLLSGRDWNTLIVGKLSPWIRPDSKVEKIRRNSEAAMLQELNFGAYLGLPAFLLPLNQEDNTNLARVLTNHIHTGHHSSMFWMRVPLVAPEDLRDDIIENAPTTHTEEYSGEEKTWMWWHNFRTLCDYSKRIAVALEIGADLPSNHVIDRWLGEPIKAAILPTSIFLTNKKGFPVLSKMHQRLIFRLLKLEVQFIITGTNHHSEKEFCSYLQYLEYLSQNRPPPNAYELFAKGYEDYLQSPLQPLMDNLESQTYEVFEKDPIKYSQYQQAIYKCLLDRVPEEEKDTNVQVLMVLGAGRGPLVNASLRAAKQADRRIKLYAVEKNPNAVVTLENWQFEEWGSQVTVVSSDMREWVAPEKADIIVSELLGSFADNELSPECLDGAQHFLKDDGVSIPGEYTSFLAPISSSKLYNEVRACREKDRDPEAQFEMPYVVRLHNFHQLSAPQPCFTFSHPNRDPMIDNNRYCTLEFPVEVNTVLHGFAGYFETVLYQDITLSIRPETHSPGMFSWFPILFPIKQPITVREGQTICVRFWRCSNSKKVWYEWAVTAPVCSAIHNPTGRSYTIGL
T2 sequence (Q9BQA1 whole entry partner): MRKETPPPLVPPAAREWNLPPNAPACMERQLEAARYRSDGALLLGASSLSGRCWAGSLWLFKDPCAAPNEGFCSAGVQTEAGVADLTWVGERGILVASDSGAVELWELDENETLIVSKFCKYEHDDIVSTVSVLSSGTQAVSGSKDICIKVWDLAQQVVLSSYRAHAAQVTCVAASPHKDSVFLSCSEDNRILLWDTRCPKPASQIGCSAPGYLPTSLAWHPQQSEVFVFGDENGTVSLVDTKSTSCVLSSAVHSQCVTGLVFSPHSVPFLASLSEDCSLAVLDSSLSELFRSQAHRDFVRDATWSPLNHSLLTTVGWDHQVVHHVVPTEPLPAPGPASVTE
Description: PRMT5 Cell Target Engagement (TE) Assay
The PRMT5 TE assay is a biomarker assay for identifying compounds that inhibit symmetric dimethylation of arginine (SDMA) of PRMT5 substrates. The following substrates have been reported for PRMT5: histone H2A and H4 R3, Histone H3 R2, Histone H3 R8, spliceosome Sm proteins, ribosomal protein RPS10, p53, FEN1, nucleoplasmin, nucleolin, EGFR and EBNA. The assay focuses on detecting symmetrically dimethylated nuclear proteins using high content imaging technology. Detection of the expression of symmetrically dimethylated nuclear proteins is through a mixture of primary rabbit monoclonal antibodies to SDMA (CST 13222), which in turn recognized by an Alexafluor 488 dye-conjugated anti-rabbit IgG secondary antibody. The IN Cell Analyzer 2200 or Opera-Phenix measures nuclear Alexafluor 488 fluorescent dye intensity that is directly related to the level of expression of symmetrically dimethylated nuclear proteins at the single cell level. Nuclear AF488 dye intensities are compared to the mean value for DMSO treated cells (MIN) to report percent of inhibition for each compound-treated well.
In this assay, the cell potency (EC50) of each compound was determined from a ten point (1:3 serial dilution; top compound concentration of 10000 nM) titration curve using the following outlined procedure. Each well of a BD falcon collagen coated black/clear bottom 384-well plate was seeded with 4000 MCF-7 cells in 30 μl media and allowed to attach for 5 h. Media is ATCC-formulated Eagle's Minimum Essential Medium, Catalog No. 30-2003. To make the complete growth medium, the following components were added to the base medium: 0.01 mg/mL human recombinant insulin; fetal bovine serum to a final concentration of 10%. Additional 30 μl of media containing 2× compounds were added to each well. Cells were treated for 3 days in 37° C. CO2 incubator. On day 3, cells were fixed with Cytofix, permeabilized with 0.4% Triton-X-100/Cytofix, and washed with D-PBS without Ca/Mg. Cells were blocked with Licor Odessey blocking reagent for 1 h at room temperature, followed by incubation with anti-SDMA (1:1000) antibody at 4° C. overnight. 1° antibody was removed, followed by three washings with DPBS without Ca/Mg and 0.05% Tween20. Hoechst (5 μg/mL), Cell Mask deep stain (1:2000) and Alexa488-conjugated goat anti-rabbit IgG (2 μg/mL) was added for 1 h at room temperature. A final washing step (three washes) was performed before sealing plate for imaging on In Cell Analyzer 2200 or Opera-Phenix. Images from analyzer were uploaded to Columbus (at WP or BOS) for image analysis. IC50 values were determined by 4 parameters robust fit of percent fluorescence units vs. (Log10) compound concentrations.

[3] = first of two EC50s: 7 parameters biphasic model, read-out: Enzyme Methylation Assay Version B (EC50_1)
[4] = second of two EC50s: 7 parameters biphasic model, read-out: Enzyme Methylation Assay Version B (EC50_2)
[5] = only one EC50 shown: 4 parameters single site sigmoidal model, 30 min pre-incubation, read-out: Enzyme Methylation Assay Version B (EC50)

T1 sequence (O14744 whole entry): as the sequence (O14744 whole entry) above
T1 sequence (Q9BQA1 whole entry partner): as the sequence (Q9BQA1 whole entry partner) above

EC50 [1, 3] [nM]	EC50 [1, 4] [nM]	EC50 [2] [nM]	EC50 [1, 5] [nM]	Structure (SMILES)
13	5890	509		O=C(c1cn2cc(Br)ccc2n1)N1CC[C@@H](N2CCc3ccccc3C2)[C@H](O)C1 (single isomer, unassigned) [Example 2]
4.8	2690	24		CC(=O)N1CCC(Nc2cc(C(=O)N3CC[C@H](N4CCc5ccccc5C4)[C@@H](O)C3)ccn2)C(F)(F)C1 (single isomer, unassigned) [Example 6]
16	8570	326		CC(=O)N1CCC(Nc2cc(C(=O)N3CC[C@H](N4CCc5ccccc5C4)[C@@H](O)C3)ccn2)C(F)(F)C1 (single isomer, unassigned) [Example 7]
~571	> 100000	9290		CC(=O)N1CCC(Nc2cc(C(=O)N3CC[C@@H](N4CCc5ccccc5C4)[C@H](O)C3)ccn2)C(F)(F)C1 (single isomer, unassigned) [Example 8]
61	8790	1680		CC(=O)N1CCC(Nc2cc(C(=O)N3CC[C@@H](N4CCc5ccccc5C4)[C@H](O)C3)ccn2)C(F)(F)C1 (single isomer, unassigned) [Example 9]
6.4	4620	119		CCC1Oc2ccc(C(=O)N3CC[C@H](N4CCc5ccccc5C4)[C@@H](O)C3)cc2NC1=O (single isomer, unassigned) [Example 10]
1.8	1070	4.9		CCC1Oc2ccc(C(=O)N3CC[C@H](N4CCc5ccccc5C4)[C@@H](O)C3)cc2NC1=O (single isomer, unassigned) [Example 11]
106	45700	6070		CCC1Oc2ccc(C(=O)N3CC[C@@H](N4CCc5ccccc5C4)[C@H](O)C3)cc2NC1=O (single isomer, unassigned) [Example 12]
~14	17600	641		CCC1Oc2ccc(C(=O)N3CC[C@@H](N4CCc5ccccc5C4)[C@H](O)C3)cc2NC1=O (single isomer, unassigned) [Example 13]
~20	17200	275		CC(=O)N1CCC(Nc2nccc(C(=O)N3CC[C@H](N4CCc5ccccc5C4)[C@@H](O)C3)c2F)C(F)(F)C1 (single isomer, unassigned) [Example 14]
6.8	3720	57		CC(=O)N1CCC(Nc2nccc(C(=O)N3CC[C@H](N4CCc5ccccc5C4)[C@@H](O)C3)c2F)C(F)(F)C1 (single isomer, unassigned) [Example 15]
160	83200	5730		CC(=O)N1CCC(Nc2nccc(C(=O)N3CC[C@@H](N4CCc5ccccc5C4)[C@H](O)C3)c2F)C(F)(F)C1 (single isomer, unassigned) [Example 16]
~191	> 100000	8420		CC(=O)N1CCC(Nc2nccc(C(=O)N3CC[C@@H](N4CCc5ccccc5C4)[C@H](O)C3)c2F)C(F)(F)C1 (single isomer, unassigned) [Example 17]
4.4	1500	12		CC(=O)N1CCC(Nc2cc(C(=O)N3CCC(N4CCc5ccccc5C4)C(O)C3C)ccn2)CC1 (single isomer, unassigned) [Example 20, l-(4-((4-(4-(3,4-dihydroisoquinolin-2(1H)-yl)-3-hydroxy-2-methylpiperidine-1-carbonyl)pyridin-2-yl)amino)piperidin-1-yl)ethan-1-one]
~56	25400	1580		CC(=O)N1CCC(Nc2cc(C(=O)N3CCC(N4CCc5ccccc5C4)C(O)C3C)ccn2)CC1 (single isomer, unassigned) [Example 21, 1-(4-((4-(4-(3,4-dihydroisoquinolin-2(1H)-yl)-3-hydroxy-2-methylpiperidine-1-carbonyl)pyridin-2-yl)amino)piperidin-1-yl)ethan-1-one]
		> 10000	5560	CC(=O)N1CCC(Nc2cc(C(=O)N3CCC(N4Cc5ccccc5C(F)(F)C4)C(O)C3)c(F)cn2)CC1 (single isomer, unassigned) [Example 24, 1-(4-((4-(-4-(4,4-difluoro-3,4-dihydroisoquinolin-2(1H)-yl)-3-hydroxypiperidine-1-carbonyl)-5-fluoropyridin-2-yl)amino)piperidin-1-yl)ethan-1-one]
841	33900	> 10000		CC(=O)N1CCC(Nc2cc(C(=O)N3CCC(N4Cc5ccccc5C(F)(F)C4)C(O)C3)c(Cl)cn2)CC1 (single isomer, unassigned) [Example 25, l-(4-((5-chloro-4-(-4-(4,4-difluoro-3,4-dihydroisoquinolin-2(1H)-yl)-3-hydroxypiperidine-1-carbonyl)pyridin-2-yl)amino)piperidin-1-yl)ethan-1-one]
		> 10000	15200	O=C(c1ccc(OCC(F)(F)F)nc1)N1CCC(N2Cc3ccccc3C(F)(F)C2)C(O)C1 (single isomer, unassigned) [Example 26, (-4-(4,4-difluoro-3,4-dihydroisoquinolin-2(1H)-yl)-3-hydroxypiperidin-1-yl)(6-(2,2,2-trifluoroethoxy)pyridin-3-yl)methanone]
		> 10000	809	CC(=O)N1CCC(Nc2cc(C(=O)N3CCC(N4Cc5ccccc5C(F)(F)C4)C(O)C3)c(F)cn2)CC1 (single isomer, unassigned) [Example 27, 1-(4-((5-fluoro-4-(-4-(4,4-difluoro-3,4-dihydroisoquinolin-2(1H)-yl)-3-hydroxypiperidine-1-carbonyl)pyridin-2-yl)amino)piperidin-1-yl)ethan-1-one]
1270	45200	1660		CC(=O)N1CCC(Nc2cc(C(=O)N3CCC(N4Cc5ccccc5C(F)(F)C4)C(O)C3)c(Cl)cn2)CC1 (single isomer, unassigned) [Example 28, l-(4-((5-chloro-4-(-4-(4,4-difluoro-3,4-dihydroisoquinolin-2(lH)-yl)-3-hydroxypiperidine-1 - carbonyl)pyridin-2-yl)amino)piperidin-1-yl)ethan-1-one]

Source: US12595248B2, “PRMT5 inhibitors” (Merck Sharp & Dohme LLC, priority 2019, dated 2026)
